# Results as given in ChEMBL document CHEMBL1155607, “Antigiardial activity of isoflavones from Dalbergia frutescens bark” (J Nat Prod, 2000).
# Activity calls are given as the source filed them. The calls are words filed in the database; no cut-off is given here.
# Columns and labels:
# [1] = system: Giardia intestinalis; test: […] activity against Giardia intestinalis ATCC 30888 at 10 ug/mL after 48 hrs by XTT assay; format: functional, organism-based; conditions: Giardia duodenalis
# [2] = system: Giardia intestinalis; test: Antifungal activity against Giardia intestinalis; format: functional, organism-based; conditions: Giardia duodenalis
# [3] = system: Giardia intestinalis; test: […] activity against Giardia intestinalis ATCC 30888 after 48 hrs by XTT assay; format: functional, organism-based; conditions: Giardia duodenalis
# [4] = system: Mus musculus; test: Toxicity in C57B mouse assessed as induction of adverse feeding behavior at 40 mg/kg, po administered once daily for 3 days; format: organism-based; parameters: dose 40 mg/kg, route oral; conditions: in vivo, 72 h
# [5] = system: Mus musculus; test: Toxicity in C57B mouse assessed as induction of adverse effect on gross behavior at 40 mg/kg, po administered once daily for 3 days; format: organism-based; parameters: dose 40 mg/kg, route oral; conditions: in vivo, 72 h
# [6] = system: Giardia intestinalis; test: […] activity against Giardia intestinalis ATCC 30888 assessed as impairment of parasite motility after 2 hrs; format: functional, organism-based; conditions: Giardia duodenalis
# [7] = system: Trichomonas; test: Antimicrobial activity against Trichomonas up to 25 ug/mL; format: functional, organism-based
# [8] = system: Giardia intestinalis; test: […] activity against Giardia intestinalis infected in C57B mouse assessed as intestinal motile trophozoites count at 10 mg/day administered 3 day postinfection for 4 days; format: functional, Giardia duodenalis
# [9] = system: Mus musculus; test: Toxicity in C57B mouse assessed as induction of adverse grooming behavior at 40 mg/kg, po administered once daily for 3 days; format: organism-based; parameters: dose 40 mg/kg, route oral; conditions: in vivo, 72 h
# [10] = system: Mus musculus; test: Toxicity in C57B mouse assessed as induction of adverse effect on appearance at 40 mg/kg, po administered once daily for 3 days; format: organism-based; parameters: dose 40 mg/kg, route oral; conditions: in vivo, 72 h
# [11] = system: Mus musculus; test: Toxicity in C57B mouse assessed as adverse effect on body weight at 40 mg/kg, po administered once daily for 3 days; format: organism-based; parameters: dose 40 mg/kg, route oral; conditions: in vivo, 72 h
# [12] = system: Giardia intestinalis; test: […] activity against Giardia intestinalis ATCC 30888 assessed as impairment of parasite motility after 4 hrs; format: functional, organism-based; conditions: Giardia duodenalis
# [13] = system: Giardia intestinalis; test: […] activity against Giardia intestinalis infected in C57B mouse assessed as increase in disease cure rate at 10 mg/day administered 3 day postinfection for 4 days; format: functional, organism-based; conditions: Giardia duodenalis
# [14] = system: Vero; test: Cytotoxicity against african green monkey Vero cells up to 50 ug/mL after 48 hrs by neutral red dye assay; format: cell-based; conditions: chlorocebus sabaeus
# [15] = system: Giardia intestinalis; test: […] activity against Giardia intestinalis infected in C57B mouse assessed as decrease in intestinal parasite load at 10 mg/day administered 3 day postinfection for 4 days; format: functional, organism-based; conditions: Giardia duodenalis
# [16] = system: Trichomonas; test: Antimicrobial activity against Trichomonas; format: functional, organism-based
structure (smiles),measurement,setting,value
COc1cc2c(=O)c(-c3ccc(O)cc3)coc2cc1O,Activity,[1],inactive
COc1ccc(-c2coc3cc(O)c(OC)cc3c2=O)cc1O,Activity,[1],inactive
Oc1cc(O)c2c(c1)O[C@H](c1ccc(O)c(O)c1)[C@H](O)C2 [(-)-EPICATECHIN],IC50,[2],< 1 µg/mL
COc1ccc(-c2coc3cc(O)cc(O)c3c2=O)cc1 [BIOCHANIN],IC50,[3],3.5 µg/mL
COc1ccc(-c2coc3cc(O)c(OC)cc3c2=O)cc1 [CASTANIN],IC50,[3],> 5 µg/mL
COc1cc2c(cc1-c1coc3cc(O)ccc3c1=O)OCO2 [CUNEATIN],Activity,[1],inactive
same,IC50,[3],> 10 µg/mL
O=c1c(-c2ccc(O)cc2)coc2cc(O)ccc12 [DAIDZEIN],IC50,[3],3.75 µg/mL
COc1ccc(-c2coc3cc(O)ccc3c2=O)cc1 [FORMONONETIN],Activity,[4],Non-toxic
same,Activity,[5],Non-toxic
same,IC50,[6],< 1 µg/mL
same,Activity,[7],Active
same,Activity,[8],0.1
same,Activity,[9],Non-toxic
same,Activity,[10],Non-toxic
same,Activity,[11],Non-toxic
same,IC50,[12],< 1 µg/mL
same,Activity,[13],Active
same,IC50,[3],0.03 µg/mL
same,Activity,[14],Non-toxic
same,Activity,[15],Active
COc1cc2c(=O)c(-c3ccc4c(c3)OCO4)coc2cc1O [FUJIKINETIN],IC50,[3],1.5 µg/mL
O=c1c(-c2ccc(O)cc2)coc2cc(O)cc(O)c12 [GENISTEIN],IC50,[3],> 5 µg/mL
Cc1ncc([N+](=O)[O-])n1CCO [METRONIDAZOLE],Activity,[6],inactive
same,Activity,[16],Active
same,Activity,[12],inactive
same,IC50,[3],0.1 µg/mL
O=c1c(-c2ccc3c(c2)OCO3)coc2cc(O)ccc12 [PSEUDOBAPTOGENIN],IC50,[3],0.56 µg/mL
